Reference: patent EP4527828A1, “BIPHENYL COMPOUND, PHARMACEUTICAL COMPOSITION, METHOD FOR PREPARING SAME, AND USE THEREOF” (Longivitron (Suzhou) Biotechnology Co., Ltd, priority 2022, dated 2023)
pIC50, pKd: −log10 of the molar value. Read-outs that look alike come from different tables or passages of the source.

Experiments:
Human FGL1 protein = target: T1, Human FGL1 protein (Homo sapiens, UniProt Q08830); experiment: SPR interaction assay, human FGL1; format: binding; conditions: for Note: bound or not bound; for kon: read-out: Ka; for koff: read-out: Kd
T1 sequence (Q08830 23-312): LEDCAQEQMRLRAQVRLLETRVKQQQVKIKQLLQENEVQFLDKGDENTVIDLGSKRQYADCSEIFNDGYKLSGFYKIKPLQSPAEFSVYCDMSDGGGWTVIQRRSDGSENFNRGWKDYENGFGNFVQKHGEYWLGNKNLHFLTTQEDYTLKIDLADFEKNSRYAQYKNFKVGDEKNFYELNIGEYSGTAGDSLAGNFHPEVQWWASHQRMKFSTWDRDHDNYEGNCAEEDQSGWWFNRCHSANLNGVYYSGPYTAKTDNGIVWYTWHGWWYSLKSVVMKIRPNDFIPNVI
Excerpt: (§1) A surface plasmon is an electromagnetic wave on a metal surface and is generated by the interaction of photons and electrons which are freely vibrated. Surface plasmon resonance (SPR) is an optical phenomenon that occurs on the surfaces of two media, and such a phenomenon can be induced by photons or electrons. When light enters an optically thinner medium from an optically denser medium, the phenomenon of total reflection occurs, and an evanescent wave is generated and enters the optically thinner medium. When the totally reflected evanescent wave meets the plasmon wave on the metal surface, resonance may occur, the energy of the reflected light decreases, and a resonance peak occurs on the energy spectrum of the reflected light. Such a resonance is called surface plasmon resonance. The angle of incidence causing the surface plasmon resonance is called an SPR angle. An SPR biosensor provides a sensitive, non-labeled detection technique for monitoring intermolecular interactions in real time. The sensor detects the change in the SPR angle, and the SPR is related to the refractive index of the metal surface. When an analyte binds to the chip surface, the refractive index of the chip surface changes, thus causing the change in the SPR angle. This is the basic principle for the SPR biosensor to detect intermolecular interactions in real time. During the interaction analysis, the change in the SPR angle is recorded on the sensorgram in real time.
(§2) Protein coupling buffer solution: 1.05× PBS-P+; 1.02× PBS-P+
(§3) Interaction buffer solution: 1.0× PBS-P+, 5% DMSO; 1.0× PBS-P+, 2% DMSO

LAG3/MHCII = target: T2, LAG3/MHCII (Homo sapiens, UniProt P18627); experiment: HTRF binding inhibition of LAG3 and its ligand MHCII; conditions: binding inhibition LAG3/MHCII
T2 sequence (P18627 23-450 limits assumed): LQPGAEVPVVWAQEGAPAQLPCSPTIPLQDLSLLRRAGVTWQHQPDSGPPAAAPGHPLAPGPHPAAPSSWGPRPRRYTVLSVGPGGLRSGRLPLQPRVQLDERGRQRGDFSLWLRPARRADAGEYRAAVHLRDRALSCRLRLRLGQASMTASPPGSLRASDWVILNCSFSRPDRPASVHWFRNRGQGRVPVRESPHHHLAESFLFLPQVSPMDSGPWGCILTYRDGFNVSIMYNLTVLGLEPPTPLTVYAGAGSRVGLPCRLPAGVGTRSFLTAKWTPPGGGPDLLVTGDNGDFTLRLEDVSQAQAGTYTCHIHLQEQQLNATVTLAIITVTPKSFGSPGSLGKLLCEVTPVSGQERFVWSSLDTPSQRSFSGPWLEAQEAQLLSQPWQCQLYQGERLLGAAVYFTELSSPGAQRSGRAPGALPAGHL
Experimental: HTRF (Homogeneous time-resolved fluorescence) is based on two techniques, fluorescence resonance energy transfer (FRET) and time-resolved fluorescence (TRF). The detection was carried out using a 384-well plate. 2 µL of a compound to be tested with an appropriate concentration was collected, 4 µL of Tag1-LAG3 protein (with a final concentration of 10 nmol·L^-1) was added, 4 µL of Tag2-MHCII (with a final concentration of 20 nmol·L^-1) was added, and the plate was incubated at room temperature for 15 min. 10 µL of Anti-Tag1-Tb working solution (prepared by adding 25 µL of Anti-Tag1-Tab mother solution to 2475 µL of dilution buffer) was added, 10 µL of Anti-Tag2-XL665 working solution (prepared by adding 25 µL of Tag2-XL665 mother solution to 2475 µL of dilution buffer) was added, and the plate was sealed with a film and incubated at room temperature for 1 h. The detection was carried out using a Perkin Elma Envision instrument.

Mouse LAG3 protein = target: T3, Mouse LAG3 protein (Mus musculus, UniProt Q61790); experiment: SPR interaction assay, CM5 chip amino coupling, mouse LAG3; format: binding; conditions: for pKd / Rmax / Note / kon / koff: ligand Mouse LAG3 protein; for Note: bound or not bound; for kon: read-out: Ka; for koff: read-out: Kd
T3 sequence (Q61790 24-521): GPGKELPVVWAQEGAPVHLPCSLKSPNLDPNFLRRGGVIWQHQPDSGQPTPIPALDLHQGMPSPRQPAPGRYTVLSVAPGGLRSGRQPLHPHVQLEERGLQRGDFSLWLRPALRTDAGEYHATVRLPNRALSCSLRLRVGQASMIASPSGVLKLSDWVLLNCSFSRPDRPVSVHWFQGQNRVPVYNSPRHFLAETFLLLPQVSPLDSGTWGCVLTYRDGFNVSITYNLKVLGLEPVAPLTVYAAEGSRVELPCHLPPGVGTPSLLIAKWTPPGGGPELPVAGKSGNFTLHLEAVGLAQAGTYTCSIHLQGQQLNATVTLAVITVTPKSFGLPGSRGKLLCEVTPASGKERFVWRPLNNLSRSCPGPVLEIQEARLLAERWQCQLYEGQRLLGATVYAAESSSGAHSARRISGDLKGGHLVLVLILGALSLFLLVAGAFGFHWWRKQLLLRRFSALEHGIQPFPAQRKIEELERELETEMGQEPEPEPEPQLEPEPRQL
Excerpt: as §1
Through the information query, the theoretical isoelectric point of the LAG3 protein is about 9.82, and the amino coupling method was contemplated to immobilize the protein. Since the main ligands of the LAG3 protein are FGL1 and MHCII proteins, after the LAG3 protein was coupled, the FGL1 protein sampling method was used to verify the protein activity.
as §2, §3
In this experiment, by using the CM5 chip amino coupling method, the human LAG3 protein was immobilized to the Fc2 or Fc3 channel, and the mouse LAG3 protein was immobilized to the Fc3 or Fc4 channel.
LAG3 protein coupling conditions were as follows: the concentration was about 25 µg/mL, the system was sodium acetate solution with a pH of 5.5, the chip activation time was 420 s, and the blocking time was 420 s.
LAG3 protein coupling conditions were as follows: the concentration was about 50 µg/mL, the system was sodium acetate solution with a pH of 4.5, the chip activation time was 420 s, and the blocking time was 420 s.

[1] = SPR, ligand FGL1 protein, read-out: KD
[2] = text summary of Table 4, read-out: affinities with the new ligand FGL1 of LAG3

Question: Which “interaction with the human FGL1 protein” value (Human FGL1 protein; SPR) does the source give for CCCCCCOc1ccc2cc1-c1cc(ccc1OCCCCCC)C(=O)CCCCCC2=O [Compound 4] here?
Answer: interacts with the human FGL1 protein

Question: And the Rmax (Human FGL1 protein; SPR, ligand FGL1 protein)?
Answer: 14.02 RU

Question: And the Note (Human FGL1 protein; SPR, ligand FGL1 protein)?
Answer: Bound

Question: What about the pKd (Human FGL1 protein; [1]) of the same molecule?
Answer: 4.63

Question: And the kon (Human FGL1 protein; SPR, ligand FGL1 protein)?
Answer: 2130 M⁻¹ s⁻¹

Question: And the koff (Human FGL1 protein; SPR, ligand FGL1 protein)?
Answer: 0.0504 s⁻¹

Question: What about the pKd (Human FGL1 protein; [2]) of the same molecule?
Answer: ~5.00

Question: And the pIC50 (LAG3/MHCII)?
Answer: 4.74

Question: And the “interaction with the mouse LAG3 protein” value (Mouse LAG3 protein)?
Answer: interacts with the mouse LAG3 protein

Question: What about the pKd (Mouse LAG3 protein) of the same molecule?
Answer: 4.88

Question: And the Rmax (Mouse LAG3 protein)?
Answer: 5.214 RU

Question: What about the Note (Mouse LAG3 protein) of the same molecule?
Answer: Bound

Question: What about the kon (Mouse LAG3 protein) of the same molecule?
Answer: 1060 M⁻¹ s⁻¹

Question: And the koff (Mouse LAG3 protein)?
Answer: 0.014 s⁻¹

Question: Which results are given for CCCCCCOc1ccc(C(=O)O)cc1-c1cc(C(=O)NCCCCNC(=O)C(F)(F)F)ccc1OCCCCCC [Compound 8]?
Answer: interaction with the human FGL1 protein (Human FGL1 protein; SPR): interacts with the human FGL1 protein; Rmax (Human FGL1 protein; SPR, ligand FGL1 protein): 28.91 RU; Note (Human FGL1 protein; SPR, ligand FGL1 protein): Bound; pKd (Human FGL1 protein; [1]): 4.80; kon (Human FGL1 protein; SPR, ligand FGL1 protein): 1470 M⁻¹ s⁻¹; koff (Human FGL1 protein; SPR, ligand FGL1 protein): 0.0231 s⁻¹; pKd (Human FGL1 protein; [2]): ~5.00; pIC50 (LAG3/MHCII): 5.08; interaction with the mouse LAG3 protein (Mouse LAG3 protein): interacts with the mouse LAG3 protein; pKd (Mouse LAG3 protein): 5.27; Rmax (Mouse LAG3 protein): 3.955 RU; Note (Mouse LAG3 protein): Bound; kon (Mouse LAG3 protein): 1870 M⁻¹ s⁻¹; koff (Mouse LAG3 protein): 0.0101 s⁻¹
